Data from patent publication US20130202649A1, “ACTIVATION OF INNATE IMMUNITY FOR NUCLEAR REPROGRAMMING OF SOMATIC CELLS” (The Board of Trustees of the Leland Stanford Junior …, priority 2012, published 2013).

Legend:
[1] = tested on: Oct4 and Sox2 promoters; assay: ChIP of histone H3 trimethylation at Oct4 and Sox2 promoters; type: cell-based, human
Experimental: We hypothesized that TLR3 activation might enhance early transcriptional activation by inducing an open chromatin state, permitting the reprogramming factors to induce an ESC-specific gene expression pattern. Accordingly, we performed ChIP assays to detect trimethylation of histone H3 at lysine 4 (H3K4me3). This epigenetic modification marks transcriptionally active genes. Human fibroblasts were treated with pMXSox2, or with CPPSox2 in the presence of poly I:C or pMXGFP. […] In a similar fashion, we assessed histone H3 at lysine 9 (H3K9me3) in the Oct4 and Sox2 promoters. This epigenetic modification marks transcriptionally silenced genes. […] These studies provided an epigenetic mechanism to explain the effect of TLR3 activation to enhance nuclear reprogramming.
Chromatin Immunoprecipitation and ChIP-qPCR qChIP was performed as previously described (Lim et al., 2009; Peng et al., 2009). For qChIP and qRT-PCR, error estimates are standard deviations. Recovery of genomic DNA as the percentage input was calculated as the ratio of copy numbers in the immunoprecipitate to the input control. Primers of Oct4 and Sox2 promoters were purchased from Cell Signaling.

[2] = tested on: HDAC; assay: HDAC expression (cDNA profiling, Western); type: cell-based, human
Excerpt: Histone acetylation status influences the folding and functional state of the chromatin and modulates the accessibility of DNA to the transcriptional machinery for gene expression. Histone de-acetylation is generally associated with a closed chromatin state, and inhibitors of histone de-acetylase (HDAC) such as valproic acid are employed to enhance nuclear reprogramming. […] The downregulation of HDAC1 expression by poly I:C was confirmed by Western analysis (FIG. 17).
Gene Expression and Microarray Analyses RNA was isolated with the RNeasy kit. First-strand cDNA was primed with oligo(dT) primers and qPCR was performed with primer sets from Applied Biosystems. RNA probes were prepared and hybridized to Illumina HumanHT-12 v4 Expression BeadChip microarrays.
Western Blotting Proteins were extracted from BJ fibroblasts by solubilizing the cells in RIPA buffer containing 1× protease inhibitor cocktail. 25 μg of total protein was loaded and resolved on SDSpolyacrylamide gels, transferred to PVDF membranes and probed with the following primary antibodies: anti-HP1α and anti-HDAC (Cell Signaling), and β-actin (Sigma, A5441). Immunoblots were developed with enhanced chemiluminescence reagents (Amersham).

[3] = tested on: human foreskin fibroblasts (BJ); assay: Transdifferentiation of human fibroblasts to endothelial cells (FACS); type: cell-based; settings: Poly I:C 30 ng/ml
Experimental: FIG. 21: Direct reprogramming of human fibroblasts to functional endothelial cells via innate immunity activation and microenvironmental cues: (A) Protocol for direct reprogramming of human BJ fibroblasts to endothelial cells. The figure describes the time course and sequential treatments of different medias: Human fibroblasts were treated with Poly I:C (30 ng/ml) for 7 days in differentiation medium I containing DMEM/FBS and 7.5% knockout serum replacement (KSR). Following 7 days, the medium was changed to differentiation medium II containing DMEM/FBS and 10% KSR containing 20 ng/ml BMP4, 50 ng/ml VEGF and 20 ng/ml bFGF. After another 7 days, the medium was replaced with endothelial medium (EGM2) containing 50 ng/ml VEGF, 20 ng/ml bFGF and 0.1 mM 8-Br-cAMP for another 14 days. The medium was changed every 2-3 days. […] (B) Fluorescent activated cell sorting (FACs) plot of data obtained using CD31+ antibody to quantitate iECs. […]
Innate immunity (TLR3 signaling) enables efficient transdifferentiation of fibroblasts to ECs: To determine whether TLR3 signaling was necessary for efficient transdifferentiation of human fibroblasts, we assessed direct differentiation in BJ fibroblasts previously treated with scrambled shRNA or shRNA to knockdown (KD) the expression of TLR3. […]

[4] = in combination with CPPSox2, day 2

Substance: Polyinosinicpolycytidylic acid [Poly I:C]
- H3K4 trimethylation at the Sox2 promoter ([1]; CPP-treated fibroblasts): accelerated H3K4 trimethylation
- H3K9 trimethylation at the Sox2 promoter ([1]; CPP-treated fibroblasts): accelerated the loss of H3K9 trimethylation
- H3K4 trimethylation at the Oct4 promoter ([1]; agent alone, day 2 (time course day 2-6)): had no effect
- H3K4 trimethylation at the Oct4 promoter [1, 4]: induced changes in H3K4 trimethylation
- H3K9 trimethylation at the Oct4 promoter [1, 4]: enhanced the H3K9 trimethylation
- expression of a suite of HDAC genes ([2]; CPP treated human fibroblasts): downregulated
- HDAC 1 protein expression (immunoblot) ([2]; day 2 to day 6): early (day 2) and sustained (to day 6) inhibition
- transdifferentiation of fibroblasts to iECs [3]: significantly enhanced
- cells expressed CD31 ([3]; 28 days of differentiation, FACS, relative to the vehicle control): Approximately 2%
